Reference: ChEMBL document CHEMBL5696439 (Cancer Res, 2010)
The source made the active and inactive calls. The rule behind the calls is not given here.

What was measured:
[1] = tested on: Tyrosine-protein kinase ABL1 (Homo sapiens), P00519 [Y253F]; test: Inhibition of recombinant human full-length His-tagged ABL1 Y253F mutant expressed in insect cells at 2 uM using Tyr 02 as substrate measured after 1 hr by Z'-LYTE assay relative to control; conditions: Insect cell
[2] = molecular target: Tyrosine-protein kinase ABL2 (Homo sapiens) (UniProt P42684); test: Inhibition of recombinant human full-length His-tagged ABL2 expressed in insect cells at 2 uM using Tyr 02 as substrate measured after 1 hr by Z'-LYTE assay relative to control; conditions: Insect cell
[3] = molecular target: Cytoplasmic tyrosine-protein kinase BMX (Homo sapiens) (UniProt P51813); test: Inhibition of recombinant human full-length His-tagged BMX expressed in insect cells at 2 uM using Tyr 01 as substrate measured after 1 hr by Z'-LYTE assay relative to control; conditions: Insect cell
Cytoplasmic tyrosine-protein kinase BMX (Homo sapiens), sequence (P51813 whole entry): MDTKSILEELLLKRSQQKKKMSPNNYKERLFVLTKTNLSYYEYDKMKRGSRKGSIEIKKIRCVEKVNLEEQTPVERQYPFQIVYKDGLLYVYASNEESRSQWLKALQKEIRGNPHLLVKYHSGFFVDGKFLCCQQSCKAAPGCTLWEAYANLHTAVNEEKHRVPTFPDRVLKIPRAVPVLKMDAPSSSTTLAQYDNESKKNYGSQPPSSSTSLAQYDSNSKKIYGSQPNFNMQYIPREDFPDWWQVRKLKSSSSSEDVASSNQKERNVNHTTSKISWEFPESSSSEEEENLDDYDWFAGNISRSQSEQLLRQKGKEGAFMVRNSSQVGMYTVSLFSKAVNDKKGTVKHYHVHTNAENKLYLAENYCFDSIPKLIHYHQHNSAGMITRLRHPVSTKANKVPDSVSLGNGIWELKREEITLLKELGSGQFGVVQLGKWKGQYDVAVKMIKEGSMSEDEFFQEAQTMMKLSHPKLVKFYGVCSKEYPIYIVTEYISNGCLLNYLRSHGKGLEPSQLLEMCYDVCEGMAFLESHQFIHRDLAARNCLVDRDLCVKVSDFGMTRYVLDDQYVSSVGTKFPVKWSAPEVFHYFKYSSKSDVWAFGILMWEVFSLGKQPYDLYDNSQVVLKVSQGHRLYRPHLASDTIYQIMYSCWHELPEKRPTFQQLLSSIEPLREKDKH

[4] = molecular target: Calcium/calmodulin-dependent protein kinase type II subunit alpha (Homo sapiens) (UniProt Q9UQM7); test: Inhibition of recombinant human full-length His-tagged CAMK2A expressed in insect cells at 2 uM using Ser/Thr 04 as substrate measured after 1 hr by Z'-LYTE assay relative to control; conditions: Insect cell
[5] = molecular target: Serine/threonine-protein kinase Chk2 (Homo sapiens) (UniProt O96017); test: Inhibition of recombinant human full-length His-tagged CHEK2 expressed in baculovirus expression system at 2 uM using Ser/Thr 07 as substrate measured after 1 hr by Z'-LYTE assay relative to control
[6] = molecular target: Casein kinase I isoform alpha (Homo sapiens) (UniProt P48729); test: Inhibition of recombinant human full-length GST-tagged CSNK1A1 at 2 uM using Ser/Thr 11 as substrate measured after 1 hr by Z'-LYTE assay relative to control
Casein kinase I isoform alpha (Homo sapiens), sequence (P48729 2-337 limits assumed): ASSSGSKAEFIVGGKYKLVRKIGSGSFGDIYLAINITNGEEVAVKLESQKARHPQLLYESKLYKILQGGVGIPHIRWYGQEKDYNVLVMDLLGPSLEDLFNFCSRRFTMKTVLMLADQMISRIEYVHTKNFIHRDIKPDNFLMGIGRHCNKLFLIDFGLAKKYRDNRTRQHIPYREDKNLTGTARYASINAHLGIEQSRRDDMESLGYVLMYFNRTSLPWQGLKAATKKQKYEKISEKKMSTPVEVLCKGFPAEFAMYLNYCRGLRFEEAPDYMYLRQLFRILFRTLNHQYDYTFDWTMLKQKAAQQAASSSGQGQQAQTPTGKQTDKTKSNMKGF

[7] = molecular target: Casein kinase I isoform gamma-3 (Homo sapiens) (UniProt Q9Y6M4); test: Inhibition of recombinant human full-length GST-tagged CSNK1G3 expressed in insect cells at 2 uM using Ser/Thr 05 as substrate measured after 1 hr by Z'-LYTE assay relative to control; conditions: Insect cell
[8] = molecular target: Ephrin type-A receptor 2 (Homo sapiens) (UniProt P29317); test: Inhibition of recombinant human GST-tagged EPHA2 (568-976 residues) expressed in insect cells at 2 uM using Tyr 01 as substrate measured after 1 hr by Z'-LYTE assay relative to control; conditions: Insect cell
[9] = molecular target: Ephrin type-B receptor 2 (Homo sapiens) (UniProt P29323); test: Inhibition of recombinant human GST-tagged EPHB2 (616-884 residues) expressed in insect cells at 2 uM using Tyr 02 as substrate measured after 1 hr by Z'-LYTE assay relative to control; conditions: Insect cell
[10] = molecular target: Glycogen synthase kinase-3 alpha (Homo sapiens) (UniProt P49840); test: Inhibition of recombinant human full-length GST-tagged GSK3A expressed in insect cells at 2 uM using Ser/Thr 09 as substrate measured after 1 hr by Z'-LYTE assay relative to control; conditions: Insect cell
[11] = molecular target: Tyrosine-protein kinase JAK3 (Homo sapiens) (UniProt P52333); test: Inhibition of recombinant human GST-tagged JAK3 (781-1124 residues) expressed in insect cells at 2 uM using Tyr 06 as substrate measured after 1 hr by Z'-LYTE assay relative to control; conditions: Insect cell
Tyrosine-protein kinase JAK3 (Homo sapiens), sequence (P52333 whole entry, the tested form may be a part): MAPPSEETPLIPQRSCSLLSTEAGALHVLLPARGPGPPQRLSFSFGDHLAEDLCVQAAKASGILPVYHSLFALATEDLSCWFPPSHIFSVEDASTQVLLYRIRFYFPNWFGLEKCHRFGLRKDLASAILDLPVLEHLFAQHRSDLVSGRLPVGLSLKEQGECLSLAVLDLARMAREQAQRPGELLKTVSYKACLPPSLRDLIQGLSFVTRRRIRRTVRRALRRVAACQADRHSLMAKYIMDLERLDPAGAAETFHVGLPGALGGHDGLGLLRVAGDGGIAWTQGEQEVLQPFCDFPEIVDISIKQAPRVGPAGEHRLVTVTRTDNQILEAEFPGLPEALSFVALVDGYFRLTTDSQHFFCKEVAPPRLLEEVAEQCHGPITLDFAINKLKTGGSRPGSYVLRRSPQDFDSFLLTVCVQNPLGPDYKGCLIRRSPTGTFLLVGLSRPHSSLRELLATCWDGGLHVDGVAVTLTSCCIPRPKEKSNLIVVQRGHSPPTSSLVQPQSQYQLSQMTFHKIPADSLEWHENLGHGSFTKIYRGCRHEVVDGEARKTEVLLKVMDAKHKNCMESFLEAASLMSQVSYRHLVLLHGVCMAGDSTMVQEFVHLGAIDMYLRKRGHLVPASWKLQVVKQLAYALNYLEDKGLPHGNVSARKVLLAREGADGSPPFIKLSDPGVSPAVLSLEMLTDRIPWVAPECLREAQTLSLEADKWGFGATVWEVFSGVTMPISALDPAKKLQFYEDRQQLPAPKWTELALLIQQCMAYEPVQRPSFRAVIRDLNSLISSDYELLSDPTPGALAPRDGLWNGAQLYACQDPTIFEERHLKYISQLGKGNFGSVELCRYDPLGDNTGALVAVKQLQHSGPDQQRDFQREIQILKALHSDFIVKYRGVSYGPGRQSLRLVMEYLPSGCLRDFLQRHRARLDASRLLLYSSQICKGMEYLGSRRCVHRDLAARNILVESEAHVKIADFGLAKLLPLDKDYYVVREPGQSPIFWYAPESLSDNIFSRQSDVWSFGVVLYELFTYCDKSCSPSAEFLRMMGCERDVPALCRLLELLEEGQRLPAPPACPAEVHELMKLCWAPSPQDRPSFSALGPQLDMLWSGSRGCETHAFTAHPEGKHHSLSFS

[12] = molecular target: Mitogen-activated protein kinase kinase kinase kinase 4 (Homo sapiens) (UniProt O95819); test: Inhibition of recombinant human GST-tagged MAP4K4 (1-328 residues) expressed in insect cells at 2 uM using Ser/Thr 07 as substrate measured after 1 hr by Z'-LYTE assay relative to control; conditions: Insect cell
Mitogen-activated protein kinase kinase kinase kinase 4 (Homo sapiens), sequence (O95819 2-1239 limits assumed): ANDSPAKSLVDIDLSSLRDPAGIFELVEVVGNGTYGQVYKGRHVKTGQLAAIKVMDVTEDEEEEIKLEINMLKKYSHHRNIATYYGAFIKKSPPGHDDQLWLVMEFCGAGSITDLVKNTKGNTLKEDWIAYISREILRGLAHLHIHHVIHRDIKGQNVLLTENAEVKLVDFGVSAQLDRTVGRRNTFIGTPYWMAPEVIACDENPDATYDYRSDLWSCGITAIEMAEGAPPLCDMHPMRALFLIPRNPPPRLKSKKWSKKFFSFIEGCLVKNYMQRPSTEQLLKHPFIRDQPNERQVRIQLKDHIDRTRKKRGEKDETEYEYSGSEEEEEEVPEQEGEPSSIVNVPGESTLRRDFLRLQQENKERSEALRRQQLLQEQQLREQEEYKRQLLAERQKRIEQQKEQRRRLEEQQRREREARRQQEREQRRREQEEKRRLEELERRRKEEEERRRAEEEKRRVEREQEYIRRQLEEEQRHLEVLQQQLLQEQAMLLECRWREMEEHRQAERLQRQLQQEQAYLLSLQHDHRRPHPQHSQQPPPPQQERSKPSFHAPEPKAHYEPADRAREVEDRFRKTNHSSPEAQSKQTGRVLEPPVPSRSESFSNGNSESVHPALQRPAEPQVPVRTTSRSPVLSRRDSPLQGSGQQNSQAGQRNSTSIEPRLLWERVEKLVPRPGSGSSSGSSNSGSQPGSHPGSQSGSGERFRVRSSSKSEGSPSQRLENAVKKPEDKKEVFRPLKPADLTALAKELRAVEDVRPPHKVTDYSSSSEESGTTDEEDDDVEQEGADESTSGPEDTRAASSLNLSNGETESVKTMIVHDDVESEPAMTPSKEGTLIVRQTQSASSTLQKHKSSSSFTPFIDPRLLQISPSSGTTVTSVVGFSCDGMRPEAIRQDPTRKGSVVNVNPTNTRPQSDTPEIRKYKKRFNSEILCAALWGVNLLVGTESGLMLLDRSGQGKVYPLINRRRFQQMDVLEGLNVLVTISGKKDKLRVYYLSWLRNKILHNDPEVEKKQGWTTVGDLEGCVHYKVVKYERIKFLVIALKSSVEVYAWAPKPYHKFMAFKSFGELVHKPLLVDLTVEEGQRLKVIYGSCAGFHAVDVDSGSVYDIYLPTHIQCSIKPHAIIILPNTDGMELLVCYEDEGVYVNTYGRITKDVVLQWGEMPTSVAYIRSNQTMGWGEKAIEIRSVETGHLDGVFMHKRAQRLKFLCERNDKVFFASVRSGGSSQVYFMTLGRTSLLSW

[13] = molecular target: Hepatocyte growth factor receptor (Homo sapiens) (UniProt P08581); test: Inhibition of recombinant human His-tagged MET (956-1390 residues) expressed in baculovirus expression system at 2 uM using Tyr 06 as substrate measured after 1 hr by Z'-LYTE assay relative to control
[14] = molecular target: Misshapen-like kinase 1 (Homo sapiens) (UniProt Q8N4C8); test: Inhibition of recombinant human GST-tagged MINK1 (1-320 residues) expressed in insect cells at 2 uM using Ser/Thr 07 as substrate measured after 1 hr by Z'-LYTE assay relative to control; conditions: Insect cell
Misshapen-like kinase 1 (Homo sapiens), sequence (Q8N4C8 whole entry, looked up, the tested form may be a part): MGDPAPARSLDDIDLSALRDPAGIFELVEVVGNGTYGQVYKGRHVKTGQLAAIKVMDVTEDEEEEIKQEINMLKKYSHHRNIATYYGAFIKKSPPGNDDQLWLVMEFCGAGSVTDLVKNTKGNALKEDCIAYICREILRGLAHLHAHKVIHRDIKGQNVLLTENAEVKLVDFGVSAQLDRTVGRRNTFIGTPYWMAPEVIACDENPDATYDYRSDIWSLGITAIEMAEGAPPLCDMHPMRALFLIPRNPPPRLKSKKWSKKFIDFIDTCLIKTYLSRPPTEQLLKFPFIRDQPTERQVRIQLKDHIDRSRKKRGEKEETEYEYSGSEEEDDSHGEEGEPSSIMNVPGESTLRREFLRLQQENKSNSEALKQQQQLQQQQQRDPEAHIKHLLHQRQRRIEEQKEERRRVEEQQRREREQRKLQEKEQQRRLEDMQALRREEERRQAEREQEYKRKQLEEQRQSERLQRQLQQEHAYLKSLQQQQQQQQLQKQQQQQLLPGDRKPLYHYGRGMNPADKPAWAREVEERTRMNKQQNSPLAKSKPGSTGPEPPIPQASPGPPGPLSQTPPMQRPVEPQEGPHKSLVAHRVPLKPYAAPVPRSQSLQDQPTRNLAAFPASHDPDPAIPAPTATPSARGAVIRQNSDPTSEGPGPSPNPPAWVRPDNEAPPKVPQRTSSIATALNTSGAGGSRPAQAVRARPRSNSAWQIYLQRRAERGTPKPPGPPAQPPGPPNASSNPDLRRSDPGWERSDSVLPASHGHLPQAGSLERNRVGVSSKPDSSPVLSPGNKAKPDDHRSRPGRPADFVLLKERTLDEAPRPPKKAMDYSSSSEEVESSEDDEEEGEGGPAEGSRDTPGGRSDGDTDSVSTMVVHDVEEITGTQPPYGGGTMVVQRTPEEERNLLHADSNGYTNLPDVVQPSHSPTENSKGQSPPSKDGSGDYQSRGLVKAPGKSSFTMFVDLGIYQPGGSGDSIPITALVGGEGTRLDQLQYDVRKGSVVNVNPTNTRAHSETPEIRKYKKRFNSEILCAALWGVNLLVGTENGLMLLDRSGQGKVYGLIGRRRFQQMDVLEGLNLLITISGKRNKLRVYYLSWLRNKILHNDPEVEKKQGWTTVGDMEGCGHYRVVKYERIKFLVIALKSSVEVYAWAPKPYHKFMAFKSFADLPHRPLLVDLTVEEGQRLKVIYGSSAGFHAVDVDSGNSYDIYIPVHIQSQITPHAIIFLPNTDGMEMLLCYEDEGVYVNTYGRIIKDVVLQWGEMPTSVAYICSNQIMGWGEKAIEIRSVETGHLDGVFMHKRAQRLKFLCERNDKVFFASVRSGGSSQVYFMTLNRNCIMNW

[15] = molecular target: SRSF protein kinase 1 (Homo sapiens) (UniProt Q96SB4); test: Inhibition of recombinant human full length His-tagged SRPK1 expressed in insect cells at 2 uM using Ser/Thr 18 as substrate measured after 1 hr by Z'-LYTE assay relative to control; conditions: Insect cell
[16] = molecular target: Testis-specific serine/threonine-protein kinase 1 (Homo sapiens) (UniProt Q9BXA7); test: Inhibition of recombinant human full length His-tagged STK22D expressed in insect cells at 2 uM using Ser/Thr 04 as substrate measured after 1 hr by Z'-LYTE assay relative to control; conditions: Insect cell
Testis-specific serine/threonine-protein kinase 1 (Homo sapiens), sequence (Q9BXA7 whole entry): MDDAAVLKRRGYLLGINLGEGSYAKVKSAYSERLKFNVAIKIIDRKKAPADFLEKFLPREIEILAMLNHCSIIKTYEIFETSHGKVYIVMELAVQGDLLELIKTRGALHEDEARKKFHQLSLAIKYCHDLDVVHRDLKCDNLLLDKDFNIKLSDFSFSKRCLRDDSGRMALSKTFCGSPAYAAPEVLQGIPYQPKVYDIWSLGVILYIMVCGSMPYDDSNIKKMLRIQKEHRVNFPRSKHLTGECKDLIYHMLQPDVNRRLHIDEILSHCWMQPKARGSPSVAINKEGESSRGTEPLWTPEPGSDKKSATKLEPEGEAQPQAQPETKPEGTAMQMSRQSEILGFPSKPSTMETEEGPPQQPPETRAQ

A549 [17] = test: Antiproliferative activity against human A549 cells assessed as cell growth inhibition incubated for 24 hrs by MTS assay; format: functional, cell-based; conditions: A549, 24 h
MDA-MB-468 = test: Induction of apoptosis in human MDA-MB-468 cells assessed as reduction in S phase at 1 micromol/L incubated for 24 hrs by FACS analysis; format: functional, cell-based; conditions: dose 1.0 µmol/L
A549 [18] = test: Induction of apoptosis in human A549 cells assessed as reduction in S phase at 1 micromol/L incubated for 24 hrs by FACS analysis; format: functional, cell-based; conditions: dose 1.0 µmol/L
MDA-MB-361 [19] = test: Induction of apoptosis in human MDA-MB-361 cells assessed as little increase in G1 phase at 5 micromol/L incubated for 12 hrs by FACS analysis relative to control; format: functional, cell-based; conditions: dose 5.0 µmol/L
HCT-116 = test: Antitumor activity against human HCT-116 cells xenografted in female nude mouse model assessed as reduction in P-AKT at T308 level at 50 mg/kg, iv administered once a week and measured at least 8 hrs by immunoblot analysis; format: functional, organism-based
MDA-MB-361 [20] = test: Antitumor activity against human MDA-MB-361 cells xenografted in female nude mouse model assessed as tumor growth delay at 5 mg/kg, po qd administered as 5 days on/2 days off regimen for 4 cycles; format: functional, organism-based; conditions: time 28.0 day
MDA-MB-361 [21] = test: Antitumor activity against human MDA-MB-361 cells xenografted in female nude mouse model assessed as suppression in P-AKT at S473 level at 6 to 12 mg/kg, po qd administered as 5 days on/2 days off regimen for 4 cycles by immunoblot analysis; format: functional, organism-based; conditions: dose 6-12 mg/kg, time 28.0 day
U-87 MG = test: Antitumor activity against PTEN-null human U-87MG cells xenografted in female nude mouse model assessed as tumor growth delay at 25 to 50 mg/kg, po qd administered as 5 days on/2 days off regimen for 4 cycles; format: functional, organism-based; conditions: U-87MG ATCC, dose 25-50 mg/kg, time 28.0 day
A549 [22] = test: Antitumor activity against VHL null-human A549 cells xenografted in female nude mouse model assessed as suppression in tumor growth at 25 mg/kg, po qd administered as 5 days on/2 days off regimen for 4 cycles relative to control; format: functional; conditions: time 28 day

Question: Which results are given for `CNC(=O)Nc1ccc(-c2nc(N3CC4CCC(C3)O4)c3cnn(C4CCC5(CC4)OCCO5)c3n2)cc1`?
Answer: inhibition [1]: 0%; inhibition [2]: 13%; inhibition [3]: 10%; inhibition [4]: 0%; inhibition [5]: 3%; inhibition [6]: 2%; inhibition [7]: -1%; inhibition [8]: 8%; inhibition [9]: 6%; inhibition [10]: -1%; inhibition [11]: 0%; inhibition [12]: 10%; inhibition [13]: 2%; inhibition [14]: 14%; inhibition [15]: 2%; inhibition [16]: 3%; IC50 (A549 [17]): 102 nM; Activity (MDA-MB-468): Active; Activity (A549 [18]): Active; Activity (MDA-MB-361 [19]): Active; Activity (HCT-116): inactive; Activity (MDA-MB-361 [20]): Active; Activity (MDA-MB-361 [21]): Active; Activity (U-87 MG): Active; Activity (A549 [22]): 100%
